In patent publication US20240083910A1, “AMIDO-SUBSTITUTED PYRIDYL COMPOUNDS AND METHODS OF USE THEREOF FOR THE TREATMENT OF HERPESVIRUSES” (Merck Sharp & Dohme LLC, priority 2020, published 2024):

Experiments:
[1] = biological target: T1, Human cytomegalovirus DNA polymerase (Human cytomegalovirus, UniProt P08546); assay: CMV polymerase assay (AlphaLISA); format: biochemical; settings: HCMV polymerase 0.2 nM; 30 min pre-incubation; 60 min at 37° C.; read-out: CMV (IC50)
T1 construct: made in house; host or cells: SF21 insect cells (baculovirus vector)
T1 sequence (P08546 whole entry): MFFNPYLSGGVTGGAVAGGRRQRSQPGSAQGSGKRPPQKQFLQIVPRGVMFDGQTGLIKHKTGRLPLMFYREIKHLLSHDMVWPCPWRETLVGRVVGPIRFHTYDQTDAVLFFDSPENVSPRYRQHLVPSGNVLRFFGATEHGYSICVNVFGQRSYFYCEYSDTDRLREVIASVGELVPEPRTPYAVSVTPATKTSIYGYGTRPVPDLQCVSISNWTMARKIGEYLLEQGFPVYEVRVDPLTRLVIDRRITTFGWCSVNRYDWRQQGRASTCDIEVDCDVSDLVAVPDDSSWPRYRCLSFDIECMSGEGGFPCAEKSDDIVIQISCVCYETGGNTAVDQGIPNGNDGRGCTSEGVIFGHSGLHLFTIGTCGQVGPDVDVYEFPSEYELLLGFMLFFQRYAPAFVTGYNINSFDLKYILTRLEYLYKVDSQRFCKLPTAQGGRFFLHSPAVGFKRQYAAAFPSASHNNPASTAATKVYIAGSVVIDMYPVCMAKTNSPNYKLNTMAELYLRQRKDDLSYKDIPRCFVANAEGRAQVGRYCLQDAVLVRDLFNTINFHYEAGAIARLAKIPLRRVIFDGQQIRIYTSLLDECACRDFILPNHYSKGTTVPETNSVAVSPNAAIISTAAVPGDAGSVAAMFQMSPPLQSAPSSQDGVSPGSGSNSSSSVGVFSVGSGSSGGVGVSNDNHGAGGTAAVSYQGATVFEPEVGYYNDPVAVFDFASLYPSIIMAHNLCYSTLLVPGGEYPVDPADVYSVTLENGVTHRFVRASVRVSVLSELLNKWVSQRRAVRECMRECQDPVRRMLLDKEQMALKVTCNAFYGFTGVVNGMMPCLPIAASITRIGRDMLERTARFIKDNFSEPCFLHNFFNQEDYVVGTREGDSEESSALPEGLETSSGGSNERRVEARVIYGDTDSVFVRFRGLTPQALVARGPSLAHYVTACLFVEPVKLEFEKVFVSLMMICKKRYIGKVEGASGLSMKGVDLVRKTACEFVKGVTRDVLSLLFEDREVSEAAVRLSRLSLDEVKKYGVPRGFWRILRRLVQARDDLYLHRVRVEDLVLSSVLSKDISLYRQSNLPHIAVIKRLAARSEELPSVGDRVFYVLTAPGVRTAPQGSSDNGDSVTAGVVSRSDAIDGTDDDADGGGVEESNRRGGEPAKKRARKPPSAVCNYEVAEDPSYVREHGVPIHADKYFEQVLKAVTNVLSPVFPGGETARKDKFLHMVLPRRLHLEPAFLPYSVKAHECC
Method: Human cytomegalovirus and varicella zoster virus DNA polymerases were expressed via baculovirus vector in SF21 cells and purified. Heterodimeric nucleic acid substrate used in the herpesvirus polymerase reactions was generated by annealing a 59-mer template to a 17-mer digoxigenin-labeled primer. Polymerase (HCMV final concentration of 0.2 nM; VZV final concentration of 0.4 nM) was combined with an inhibitor compound or DMSO in assay buffer (10 mM HEPES, pH 7.5, 25 mM KCl, 25 mM NaCl, 5 mM MgCl2, 5% glycerol, 0.67 mg/ml bovine serum albumin, and 1 mM tris(2-carboxyethyl)phosphine), and this mixture was pre-incubated for 30 minutes at room temperature in 384-well microtiter plates. The polymerization reaction was initiated by the addition of template/primer substrate (final concentration: 1.6 nM), and dNTPs (final concentration: 24 nM dCTP, 24 nMdGTP, 16 nM dATP, 16 nM dTTP, and 0.8 nM biotin-dUTP). After 60 min incubation at 37° C., reactions were terminated with quench buffer (25 mM HEPES pH 7.5, 100 mM NaCl, 0.25% Tween-20, 12 mM EDTA, and 1 mg/ml bovine serum albumin). Incorporation of biotinylated UTP was detected with 2.5-5 ug/ml anti-DIG AlphaLISA acceptor beads and 5-10 ug/ml streptavidin AlphaLISA donor beads (PerkinElmer). Compound effects were normalized to the window defined by the controls (DMSO only and pre-quenched wells) and were fit using a 4-parameter algorithm to report an IC50.

HCMV Strain AD169 = assay: Viral qPCR assay, HCMV; format: cell-based, Human cytomegalovirus; settings: Human betaherpesvirus 5, AD169, MRC5, 72 h, MRC-5 cells, 0.05-0.1 pfu/cell, growth media or 50% fetal bovine serum, viral genome copies by qPCR, read-out: CMV Cell (EC50)
Method: (§1) MRC5 cells, Vero cells, and MeWo cells were obtained from ATCC, and were maintained at 37° C./5% CO2/90% relative humidity in Minimal Essential Medium with 10% fetal bovine serum, […] L-glutamine, 100 units/ml penicillin and 100 ug/ml streptomycin. Assay plates were prepared by dispensing compounds dissolved in DMSO into wells of 384 well collagen-coated plates using an ECHO acoustic dispenser. Each compound was tested in a 10-point, serial 3-fold dilution. Controls included uninfected cells and infected cells treated only with DMSO. Assays were initiated by mixing selected cells, in suspension, with virus, and dispensing 50 μl/well infected cells to pre-plated compounds. Plates were incubated at 37° C./5% CO2/90% relative humidity for ˜72 hrs to permit genomic replication, and infected cells were lysed by the addition of an equal volume of lysis buffer (10 mM Tris-HCl, pH8, 50 mM KCl, 2 mM MgCl2, 0.45% NP-40, 0.45% Tween-20, and 100 μg/ml proteinase K). An aliquot of the lysate was transferred to a 384-well PCR plate and incubated at 56° C. for 1 hour and then at 95° C. for 10 min. Levels of a viral gene and of the cellular control, PPIA (Thermo Fisher Assay ID=Hs04194521_s1), were measured in separate 10 ul qPCR assays using TaqMan® Gene Expression Master Mix (Applied Biosystems), and an 7900HT Fast Real-Time PCR System with 384-Well Block Module. 7-point, serial 10-fold dilutions of a plasmid standard were run on each plate to generate a standard curve, and genome copies numbers were calculated by plotting experimental Ct onto linear regression of the standard curve. Viral genome copy numbers were normalized by cellular control copy number, and compound effects were normalized to the window defined by the controls. Calculated % effects were fit using a 4-parameter algorithm, and EC50 was reported.
(§2) MRC5 cells, Vero cells, and MeWo cells were obtained from ATCC, and were maintained at 37° C./5% CO2/90% relative humidity in Minimal Essential Medium with 10% fetal bovine serum, […] L-glutamine, 100 units/ml penicillin and 100 ug/ml streptomycin. Assay plates were prepared by dispensing compounds dissolved in DMSO into wells of 384 well collagen-coated plates using an ECHO acoustic dispenser. Each compound was tested in a 10-point, serial 3-fold dilution. Controls included uninfected cells and infected cells treated only with DMSO. Assays were initiated by mixing selected cells, in suspension, with virus, and dispensing 50 μl/well infected cells to pre-plated compounds. Plates were incubated at 37° C./5% CO2/90% relative humidity for ˜72 hrs to permit genomic replication, and infected cells were lysed by the addition of an equal volume of lysis buffer (10 mM Tris-HCl, pH 8, 50 mM KCl, 2 mM MgC12, 0.45% NP-40, 0.45% Tween-20, and 100 μg/ml proteinase K). An aliquot of the lysate was transferred to a 384-well PCR plate and incubated at 56° C. for 1 hour and then at 95° C. for 10 min. Levels of a viral gene were measured in 10 ul qPCR assays using TaqMan® Gene Expression Master Mix (Applied Biosystems), and an 7900HT Fast Real-Time PCR System with 384-Well Block Module. 7-point, serial 10-fold dilutions of a plasmid standard were run on each plate to generate a standard curve, and genome copies numbers were calculated by plotting experimental Ct onto linear regression of the standard curve. Compound effects on viral genome copy number were normalized to the window defined by the controls. Calculated % effects were fit using a 4-parameter algorithm, and ECso was reported.
HCMV: Strain AD169 Street was assayed in MRC-5 cells and was used at 0.05-0.1 pfu/cell. The assays were performed in either growth media or in the same media with 50% fetal bovine serum. Primer-probe set was Thermo Fisher Assay ID=AIFATFK.

VZV = assay: Viral qPCR assay, VZV; format: cell-based, varicella zoster virus; settings: Human alphaherpesvirus 3, 72 h, MeWo or MRC5 cells, 0.04-0.1 pfu/cell, growth medium, viral genome copies by qPCR
Method: as §1, §2
VZV: Strain Street was maintained as an infected cell stock in MRC-5 cells. It was assayed in MeWo or MRC5 cells and was used at 0.04-0.1 pfu/cell. The assays were performed in growth medium. Primer-probe set was Thermo Fisher Assay ID=AIPAEXQ.

HSV-1 Strain F = assay: Viral qPCR assay, HSV-1; format: cell-based, Herpes Simplex Virus type 1; settings: Human alphaherpesvirus 1, 72 h, Vero or MRC5 cells, 0.0005-0.004 pfu/cell, growth medium, viral genome copies by qPCR, read-out: HSV1 Cell (EC50)
Method: as §1, §2
HSV-1: Strain F […] was assayed in Vero or MRC5 cells and was used at 0.0005-0.004 pfu/cell in growth medium. Primer-probe set was Thermo Fisher Assay ID=AIBJZIB

COc1nc(-c2cc3ccccc3[nH]2)c(O[C@H]2CCN3C(=O)OC[C@@H]3C2)cc1C(=O)NCc1ccc(Cl)cc1 [Compound 26]
IC50 [1]: 5.8 nM | EC50 (HCMV Strain AD169): 372 nM | EC50 (VZV): 208 nM | EC50 (HSV-1 Strain F): 174 nM

COc1nc(-c2cc3nccnc3[nH]2)c(O[C@H]2CCN3C(=O)OC[C@@H]3C2)cc1C(=O)NCc1ccc(Cl)cc1 [Compound 27]
IC50 [1]: 33.6 nM | EC50 (HCMV Strain AD169): 556 nM | EC50 (VZV): 859 nM | EC50 (HSV-1 Strain F): 648 nM

COc1nc(-c2cc[nH]c2)c(O[C@H]2CCN3C(=O)OC[C@@H]3C2)cc1C(=O)NCc1ccc(Cl)cc1 [Compound 28]
IC50 [1]: 5.36 nM | EC50 (HCMV Strain AD169): 200 nM | EC50 (VZV): 196 nM | EC50 (HSV-1 Strain F): 103 nM

COc1nc(-c2csc(-n3cccn3)n2)c(O[C@H]2CCN3C(=O)OC[C@@H]3C2)cc1C(=O)NCc1ccc(Cl)cc1 [Compound 29]
IC50 [1]: 31.2 nM | EC50 (HCMV Strain AD169): 514 nM | EC50 (VZV): 368 nM | EC50 (HSV-1 Strain F): 246 nM

COc1nc(-c2ccn(C)c2)c(O[C@H]2CCN3C(=O)OC[C@@H]3C2)cc1C(=O)NCc1ccc(Cl)cc1 [Compound 30]
IC50 [1]: 14.5 nM | EC50 (HCMV Strain AD169): 462 nM | EC50 (VZV): 187 nM | EC50 (HSV-1 Strain F): 202 nM

CCn1cc(-c2nc(OC)c(C(=O)NCc3ccc(Cl)cc3)cc2O[C@H]2CCN3C(=O)OC[C@@H]3C2)cn1 [Compound 31]
IC50 [1]: 5.13 nM | EC50 (HCMV Strain AD169): 175 nM | EC50 (VZV): 102 nM | EC50 (HSV-1 Strain F): 103 nM

COc1nc(-c2cnn(CCO)c2)c(O[C@H]2CCN3C(=O)OC[C@@H]3C2)cc1C(=O)NCc1ccc(Cl)cc1 [Compound 32]
IC50 [1]: 0.705 nM | EC50 (HCMV Strain AD169): 103 nM | EC50 (VZV): 106 nM | EC50 (HSV-1 Strain F): 52 nM

COc1ccc(-c2nc(OC)c(C(=O)NCc3ccc(Cl)cc3)cc2O[C@H]2CCN3C(=O)OC[C@@H]3C2)s1 [Compound 33]
IC50 [1]: 11 nM | EC50 (HCMV Strain AD169): 901 nM | EC50 (VZV): 679 nM | EC50 (HSV-1 Strain F): 144 nM

COc1csc(-c2nc(OC)c(C(=O)NCc3ccc(Cl)cc3)cc2O[C@H]2CCN3C(=O)OC[C@@H]3C2)c1 [Compound 34]
IC50 [1]: 8.26 nM | EC50 (HCMV Strain AD169): 421 nM | EC50 (VZV): 1920 nM | EC50 (HSV-1 Strain F): 260 nM

COc1nc(-c2ccc(N)nc2)c(O[C@H]2CCN3C(=O)OC[C@@H]3C2)cc1C(=O)NCc1ccc(Cl)cc1 [Compound 36]
IC50 [1]: 3.38 nM | EC50 (HCMV Strain AD169): 175 nM | EC50 (VZV): 92.3 nM | EC50 (HSV-1 Strain F): 82 nM

COc1nc(-c2ccc3[nH]ccc3c2)c(O[C@H]2CCN3C(=O)OC[C@@H]3C2)cc1C(=O)NCc1ccc(Cl)cc1 [Compound 39]
IC50 [1]: 81.5 nM | EC50 (HCMV Strain AD169): 886 nM | EC50 (VZV): 1360 nM | EC50 (HSV-1 Strain F): 658 nM
